Reference: patent US12661410B2, “Compounds for targeted degradation of RET” (C4 Therapeutics, Inc., priority 2020, dated 2026)
Changes are numbered by the printed parent chain. Where two headings read alike, the source gives them in different places.

Tests used:
[1] = molecular target: T1, RET(KD: 658-1114 G810R) (Homo sapiens, UniProt P07949, G810R); experiment: HiBiT-Degradation, RET G810R degradation assay (Nano-Glo HiBiT Lytic), 293T.165 cells; type: cell-based; details: for Emax / DC50: 6.0 hours; for Emax: % remaining protein, read-out: 293T.165 RET(KD: 658-1114 G810R) 6.0 hours (Emax); for DC50: read-out: 293T.165 RET(KD: 658-1114 G810R) 6.0 hours (DC50)
T1 construct: 658-1114; expressed in transfected cells; host or cells: 293T.165 (293T cells, generated in-house)
T1 sequence (P07949 658-1114 G810R): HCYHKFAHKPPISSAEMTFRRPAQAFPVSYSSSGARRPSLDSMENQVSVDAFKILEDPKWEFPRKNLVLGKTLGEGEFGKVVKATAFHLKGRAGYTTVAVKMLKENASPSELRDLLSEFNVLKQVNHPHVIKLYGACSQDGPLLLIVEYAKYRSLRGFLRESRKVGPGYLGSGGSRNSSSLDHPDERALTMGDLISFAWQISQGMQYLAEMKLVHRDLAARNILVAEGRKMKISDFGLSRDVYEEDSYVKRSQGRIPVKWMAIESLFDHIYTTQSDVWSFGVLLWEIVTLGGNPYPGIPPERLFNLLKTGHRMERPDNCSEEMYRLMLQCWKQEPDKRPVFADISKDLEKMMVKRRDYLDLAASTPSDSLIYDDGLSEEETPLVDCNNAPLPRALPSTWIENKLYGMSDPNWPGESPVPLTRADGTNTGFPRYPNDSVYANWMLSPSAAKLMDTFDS
Excerpt: (§1) Dulbecco's modified Eagle medium (DMEM) no-phenol red media and fetal bovine serum (FBS) were purchased from Gibco (Grand Island, NY, USA). Cell lines ectopically expressing wild-type or G810R RET kinase domain fused with a HiBiT tag were generated in-house (293T. 144 and 293T. 165, respectively). Cell culture flasks and 384-well microplates were acquired from VWR (Radnor, PA, USA). The Nano-Glo® HiBiT Lytic Assay System was purchased from Promega (Madison, WI, USA).
(§2) RET wild-type (WT) and G810R degradation were assessed using the Nano-Glo® HiBiT Lytic assay (Promega, Medison, WI, USA). To determine the effect of degraders on protein levels, cells were plated in 384-well plates and treated with compounds of interest in duplicates for 6 hours using an 11-point half-log dilution series, with the highest dose set at 10 μM. Cell lysis and addition of the Nano-Glo® HiBiT Lytic Assay reagents was then performed. Luminescence signal was measured using an EnVision™ Multimode plate reader (Perkin Elmer, Santa Clara, CA, USA). The half-maximal degradation concentration (DC50) and % remaining protein (Emax) was then derived from the dose-response curves.

[2] = molecular target: T2, RET (658-1114) (Homo sapiens, UniProt P07949); experiment: HiBiT-Degradation, RET wild-type degradation assay (Nano-Glo HiBiT Lytic), 293T.144 cells; type: cell-based; details: for DC50 / Emax: 6.0 hours; for DC50: read-out: 293T.144 RET (658-1114) 6.0 hours (DC50); for Emax: read-out: 293T.144 RET (658-1114) 6.0 hours (Emax)
T2 construct: 658-1114; expressed in transfected cells; host or cells: 293T.144 (293T cells, generated in-house)
T2 sequence (P07949 658-1114): T1 sequence (P07949 658-1114 G810R) with R153G
Excerpt: as §1, §2

[3] = half-maximal degradation concentration

SMILES	Emax [1] [%]	DC50 [1, 3] [nM]	293T.165 RET(KD: 658-1114 G810R) 6.0 hours (Emax) ([1]; HiBiT-Degradation)	293T.165 RET(KD: 658-1114 G810R) 6.0 hours (IP) [nM] ([1]; HiBiT-Degradation)	DC50 ([1]; HiBiT-Degradation) [nM]	293T.144 RET (658-1114) 6.0 hours (IP) [nM] ([2]; HiBiT-Degradation)	DC50 ([2]; HiBiT-Degradation) [nM]	Emax ([2]; HiBiT-Degradation) [%]	293T.165 RET(KD: 658-1114 G810R) 6.0 hours (IP) [nM] [1]	293T.144 RET (658-1114) 6.0 hours (IP) [nM] [2]	Emax ([2]; % remaining protein) [%]	DC50 [2, 3] [nM]
N#Cc1cnn2cc(-c3cnn(C4CCN(CCN5CCC(c6ccc(NC7CCC(=O)NC7=O)cc6F)CC5)CC4)c3)cc(-c3ccc(N4CCN(Cc5ccccn5)CC4)nc3)c12 (centres unmarked) [Compound 12, 6-(1-(1-(2-(4-(4-((2,6-Dioxopiperidin-3-yl)amino)-2-fluorophenyl)piperidin-1-yl)ethyl)piperidin-4-yl)-1H-pyrazol-4-yl)-4-(6-(4-(pyridin-2-ylmethyl)piperazin-1-yl)pyridin-3-yl)pyrazolo[1,5-a]pyridine-3-carbonitrile]	< 50	< 100	+++ (<50% = +++)	++++ (< 50 nM = ++++)	< 100	++++ (< 50 nM = ++++)	< 50	< 30				
CCC1(c2ncccn2)CCN(c2ccc(-c3nc(-c4cnn([C@H]5CC[C@H](N6CCC(c7ccc(N[C@H]8CCC(=O)NC8=O)cc7F)CC6)CC5)c4)cn4ncc(C#N)c34)cn2)CC1 (single isomer, unassigned) [Compound 139]	< 30	< 50							++++ (<50 nM = ++++)	++++ (<50 nM = ++++)	< 30	< 50
N#Cc1cnn2cc(-c3cnn([C@H]4CC[C@H](N5CCC(c6ccc(NC7CCC(=O)NC7=O)cc6F)CC5)CC4)c3)nc(-c3ccc(N4CC5COCC(C4)N5Cc4ccccn4)nc3)c12 (single isomer, unassigned) [Compound 154, 6-[1-[4-[4-[4-[(2,6-dioxo-3-piperidyl)amino]-2-fluoro-phenyl]-1-piperidyl]cyclohexyl]pyrazol-4-yl]-4-[6-[9-(2-pyridylmethyl)-3-oxa-7,9-diazabicyclo[3.3.1]nonan-7-yl]-3-pyridyl]pyrazolo[1,5-a]pyrazine-3-carbonitrile]	< 30	< 50							++++ (<50 nM = ++++)	++++ (<50 nM = ++++)	< 30	< 50
N#Cc1cnn2cc(-c3cnn(C4CCN(C(=O)CC5(O)CCN(c6ccc(NC7CCC(=O)NC7=O)cc6F)CC5)CC4)c3)nc(-c3ccc(N4CCC(c5ncccn5)CC4)nc3)c12 (centres unmarked) [Compound 36, 6-[1-[1-[2-[1-[4-[(2,6-dioxo-3-piperidyl)amino]-2-fluoro-phenyl]-4-hydroxy-4-piperidyl]acetyl]-4-piperidyl]pyrazol-4-yl]-4-[6-(4-pyrimidin-2-yl-1-piperidyl)-3-pyridyl]pyrazolo[1,5-a]pyrazine-3-carbonitrile]	< 30	< 50	++++ (< 30% = ++++)	++++ (< 50 nM = ++++)	< 50	++++ (< 50 nM = ++++)	< 50	< 30				
CCC1(C(=O)NC(C)C)CCN(c2ccc(-c3nc(-c4cnn([C@H]5CC[C@H](N6CCC(c7ccc(N[C@@H]8CCC(=O)NC8=O)cc7F)CC6)CC5)c4)cn4ncc(C#N)c34)cn2)CC1 (single isomer, unassigned) [Compound 124]	< 30	< 50							++++ (<50 nM = ++++)	++++ (<50 nM = ++++)	< 30	< 50
CCC1(C(=O)NC(C)C)CCN(c2ccc(-c3nc(-c4ccc(N5CCN(C(=O)CC6(O)CCN(c7ccc8c(N9CCC(=O)NC9=O)nn(C)c8c7)CC6)CC5)cc4)cn4ncc(C#N)c34)cn2)CC1 [Compound 173, 1-(5-(3-cyano-6-(4-(4-(2-(1-(3-(2,4-dioxotetrahydropyrimidin-1(2H)-yl)-1-methyl-1H-indazol-6-yl)-4-hydroxypiperidin-4-yl)acetyl)piperazin-1-yl)phenyl)pyrazolo[1,5-a]pyrazin-4-yl)pyridin-2-yl)-4-ethyl-N-isopropylpiperidine-4-carboxamide]	< 50	< 100							+++ (<100 nM = +++)	++++ (<50 nM = ++++)	< 30	< 50
CCC1(C(=O)Nc2ccccc2)CCN(c2ccc(-c3nc(-c4cnn(C5CCN(C(=O)CC6(O)CCN(c7ccc(NC8CCC(=O)NC8=O)cc7Cl)CC6)CC5)c4)cn4ncc(C#N)c34)cn2)CC1 (centres unmarked) [Compound 98, 1-[5-[6-[1-[1-[2-[1-[2-chloro-4-[(2,6-dioxo-3-piperidyl)amino]phenyl]-4-hydroxy-4-piperidyl]acetyl]-4-piperidyl]pyrazol-4-yl]-3-cyano-pyrazolo[1,5-a]pyrazin-4-yl]-2-pyridyl]-4-ethyl-N-phenyl-piperidine-4-carboxamide]	< 30	< 100							++++ (<50 nM = ++++)	++++ (<50 nM = ++++)	< 30	< 50
CC(=O)N1CCN(c2ccc(-c3cc(-c4ccc(N5CCN(C(=O)CN6CCC(c7ccc(NC8CCC(=O)NC8=O)cc7)CC6)CC5)cc4)cn4ncc(C#N)c34)cn2)CC1 (centres unmarked) [Compound 41, 4-[6-(4-acetylpiperazin-1-yl)-3-pyridyl]-6-[4-[4-[2-[4-[4-[(2,6-dioxo-3-piperidyl)amino]phenyl]-1-piperidyl]acetyl]piperazin-1-yl]phenyl]pyrazolo[1,5-a]pyridine-3-carbonitrile]	< 50	< 100	+++ (<50% = +++)	++++ (< 50 nM = ++++)	< 100	++++ (< 50 nM = ++++)	< 50	< 30				
CCC1(NC(=O)C(C)C)CCN(c2ccc(-c3cc(-c4cnn(C5CCN(C(=O)CN6CCC(c7ccc(NC8CCC(=O)NC8=O)cc7F)CC6)CC5)c4)cn4ncc(C#N)c34)cn2)CC1 (centres unmarked) [Compound 55, N-[1-[5-[3-cyano-6-[1-[1-[2-[4-[4-[(2,6-dioxo-3-piperidyl)amino]-2-fluoro-phenyl]-1-piperidyl]acetyl]-4-piperidyl]pyrazol-4-yl]pyrazolo[1,5-a]pyridin-4-yl]-2-pyridyl]-4-ethyl-4-piperidyl]-2-methyl-propanamide]	< 50	< 50	+++ (<50% = +++)	++++ (< 50 nM = ++++)	< 50	++++ (< 50 nM = ++++)	< 50	< 30				
CCC1(c2ncccn2)CCN(c2ccc(-c3nc(-c4cnn(C5CCN(C(=O)CC6(O)CCN(c7ccc(NC8CCC(=O)NC8=O)cc7F)CC6)CC5)c4)cn4ncc(C#N)c34)cn2)CC1 (centres unmarked) [Compound 105, 6-[1-[1-[2-[1-[4-[(2,6-dioxo-3-piperidyl)amino]-2-fluoro-phenyl]-4-hydroxy-4-piperidyl]acetyl]-4-piperidyl]pyrazol-4-yl]-4-[6-(4-ethyl-4-pyrimidin-2-yl-1-piperidyl)-3-pyridyl]pyrazolo[1,5-a]pyrazine-3-carbonitrile]	< 50	< 50							++++ (<50 nM = ++++)	++++ (<50 nM = ++++)	< 30	< 50
